In patent publication US5208259A, “Diaryl ether hetrocycles” (Imperial Chemical Industries, priority 1989, dated 1993):

How the values were obtained:
5-LO [1] = experiment: Test g) zymosan-induced liberation of LTB4 within air pouch of male rats; type: in vivo; details: 3 h; Test g), rat air pouch, oral
Description: g) An in vivo system involving measuring the effects of a test compound administered orally against the liberation of LTB4 induced by zymosan within an air pouch generated within the subcutaneous tissue of the back of male rats. The rats are anaesthetised and air pouches are formed by the injection of sterile air (20 ml). A further injection of air (10 ml) is similarly given after 3 days). At 6 days after the initial air injection the test compound is administered (usually orally as the suspension produced when a solution of the test compound in dimethylsulphoxide is added to hydroxypropylmethylcellulose), followed by the intrapouch injection of zymosan (1 ml of a 1% suspension in physiological saline). After 3 hours the rats are killed, the air pouches are lavaged with physiological saline, and the specific radioimmunoassay described above is used to assay LTB4 in the washings. This test provides an indication of inhibitory effects against 5-L0 in an inflammatory milieu.

5-LO [2] = experiment: Test c) ex vivo assay: oral administration, blood collection, A23187 challenge, radioimmunoassay of LTB4; type: in vivo
Description: c) An ex vivo assay system, which is a variation of test b) above, involving administration of a test compound (usually orally as the suspension produced when a solution of the test compound in dimethylsulphoxide is added to carboxymethylcellulose), blood collection, heparinisation, challenge with A23187 and radioimmunoassay of LTB4 and TxB2. This test provides an indication of the bioavailability of a test compound as an inhibitor of 5-L0 or cyclooxygenase.

5-LO [3] = experiment: Test b) heparinised human blood challenged with A23187, LTB4 radioimmunoassay; type: cell-based; details: A23187, against LTB4
Description: b) An in vitro assay system involving incubating a test compound with heparinised human blood, prior to challenge with the calcium ionophore A23187 and then indirectly measuring the inhibitory effects on 5-L0 by assaying the amount of LTB4 using the specific radioimmunoassay described by Carey and Forder (F. Carey and R. A. Forder, Brit. J. Pharmacol. 1985, 84, 34P) which involves the use of a protein-LTB4 conjugate produced using the procedure of Young et alia (Prostaglandins, 1983, 26(4), 605-613). The effects of a test compound on the enzyme cyclooxygenase (which is involved in the alternative metabolic pathway for arachidonic acid and gives rise to prostaglandins, thromboxanes and related metabolites) may be measured at the same time using the specific radioimmunoassay for thromboxane B2 (TxB2) described by Carey and Forder (see above). This test provides an indication of the effects of a test compound against 5-L0 and also cylooxygenase in the presence of blood cells and proteins. It permits the selectivity of the inhibitory effect on 5-L0 or cyclooxygenase to be assessed.

Row | IC50 (5-LO [3]) | Structure (SMILES) | ED50 (5-LO [1]) | ED50 (5-LO [2])
1 | < 150 nM | COC1(c2cccc(Sc3ccc4ccccc4c3)c2)CCOCC1 [4-methoxy-4-[3-(naphth-2-ylthio)phenyl]tetrahydropyran] | < 10 mg/kg | 3 mg/kg
2 | < 150 nM | CO[C@]1(c2cc(F)cc(Sc3ccc(C(C)(C)C)cc3)c2)CCO[C@@H](C)C1 [(2S,4R)-4-[5-fluoro-3-(4-tert-butylphenylthio)phenyl]-4-methoxy-2-methyltetrahydropyran] | 0.75 mg/kg | 2 mg/kg
